# Test results from patent US7589122B2, “Method for soybean aphid population suppression and monitoring using aphid- and host-plant-associated semiochemical compositions” (MSTRS Technologies, Inc., priority 2004, dated 2009).
# Columns and labels:
# [1] = test system: antennae of winged soybean aphids, Aphis glycines; assay: EAG responses of winged soybean aphids to soybean associated volatile compounds; conditions: relative to the control (FIG. 3)
# From the text: FIG. 3 is a graph of EAG responses of winged soybean aphids, Aphis glycines, to some soybean associated volatile compounds.
# EAG responses of soybean aphids to soybean plant volatiles and their attractiveness in the field. […] All other compounds elicited EAG responses seemed not to be attractive to winged aphids relative to the control.
# [2] = test system: gynoparous female antennae of soybean aphids; assay: EAG dose-response of gynoparous female soybean aphid antennae to synthetic pheromone compounds; set-up: species or system Aphis glycines; conditions: when pheromone exceeded a 1 mg dosage (FIG. 11 lower)
# From the text: FIG. 11 is two graphs of EAG dose-response curves from male (upper part) and gynoparous female antennae (lower part) of soybean aphids to synthetic pheromone candidate compounds (n=4; different letters within a series indicate significant differences, ANOVA followed by FPLSD test, P<0.05)
# EAG dose-responses of male and gynoparous soybean aphids to the identified sex pheromone compounds.
# [3] = test system: male and gynoparous female soybean aphids; assay: Field trapping of male and gynoparous soybean aphids with synthetic sex pheromone lures; type: in vivo, Aphis glycines; conditions: synthetic pheromone lures 10 mg, soybean fields (FIG. 12)
# Procedure: FIG. 16 is a graph of mean number of winged soybean aphids caught in water traps baited with different combinations of catnip oil and the two pheromone compounds (n=5, columns with no letters in common are significant different, ANOVA followed by FPLSD test, P<0.05)
# (§1) Field Test. Field trapping tests were conducted in soybean field from 2002 to 2003 (Ames, Iowa). Synthetic compounds at a dose of 100 mg (for plant volatiles) and 10 mg for soybean aphid pheromones were prepared in either hexane or methylene chloride or ether. Medical peerless cotton rolls (5 cm long, 100% cotton) were used as dispensers for loading plant volatiles, and borosilicate glass vials (Chromal) were housed for pheromones. Two trap designs were used, and the first type is similar to that described in Zhu et al., (1999), and the second one is the most common trap used for aphid trapping, the water trap. The trap was hung from bamboo stakes, 1.2 m above the ground. Within a replicate (N=5-6), traps were set at least 10 m apart. The traps were checked daily, and trap position within a series was randomized to minimize the effects of habitat heterogeneity.
# [4] = test system: soybean aphids on soybean plants; assay: Caged greenhouse experiment: effect of methyl salicylate on soybean aphid colonizing and growth; type: in vivo, Aphis glycines
# Procedure: The effect of Methyl salicylate on soybean aphid growth. This experiment was conducted in the green house, where cages of soybean plants treated with dispensers loaded 4 g of synthetic methyl salicylate. Newly emerged winged soybean aphids on one cut-soybean leaf (dried) were placed in the middle of the cage, which is 30 cm away from the potted soybean plants (V2 stage) with or without treatment of methyl salicylate. For plants treated with methyl salicylate, the cotton roll was placed in the center of the plant, and was replaced with a newly loaded one after one week. The number of winged aphids on each plant were counted 2 hours after introducing the winged aphids, and continued for a week. The number of wingless soybean aphids produced from those landed winged aphids was also counted everyday for about two weeks.
# syrphids = assay: Field trapping of predatory insects with attractant compounds: syrphids; type: in vivo, Syrphidae (syrphids); conditions: 100 mg bait, Iowa soybean field 2003 (FIG. 7)
# Procedure: (§2) FIG. 7 is a graph of the mean number of predatory insects caught in traps baited with 100 mg of methyl salicylate and 2-phenylethanol, and the control from an Iowa soybean field in 2003.
# as §1
# Harmonia axyridis = assay: Field trapping of predatory insects with attractant compounds: Harmonia axyridis; type: in vivo; conditions: 100 mg bait, vs control (FIG. 7)
# Procedure: as §2, §1
# [5] = test system: Coccinella septempunctata; assay: Field trapping of predatory insects with attractant compounds: Coccinella septempunctata; type: in vivo; conditions: 100 mg bait, Iowa soybean field 2003 (FIG. 7)
# Procedure: as §2
# FIG. 8 is a graph of the mean number of Coccinella septempunctata caught in traps baited with different doses of methyl salicylate from an Iowa soybean field in 2004.
# as §1
# winged soybean aphids = assay: Field trapping of winged soybean aphids with selected soybean volatile compounds; type: in vivo, Aphis glycines; conditions: traps baited with synthetic soybean volatile, 100 mg, soybean field (FIG. 4)
# Procedure: FIG. 4 is a graph of the number of winged soybean aphids caught per trap baited with some selected soybean volatile compounds (synthetic) in the soybean field.
# as §1
smiles,measurement,setting,value
CC(=O)CCC=C(C)C [6-methyl-5-hepten-2-one],EAG responses of winged soybean aphids,[1],significantly stronger than the control
"CC1=COC(=O)[C@H]2[C@@H]1CC[C@@H]2C [nepetalactone, (4aS,7S,7aR)-nepetalactone]",EAG response of gynoparous female antennae,[2],higher EAG response
same,number of male and gynoparous soybean aphids caught in traps,[3],Significantly lower catches
COC(=O)c1ccccc1O [methyl salicylate],growth of wingless soybean aphids on soybean leaves,[4]; caged potted soybean plants treated vs untreated (FIG. 17 lower),suppress the growth
same,soybean aphid colonizing on soybean plants (winged aphids found on potted plants),[4]; caged potted soybean plants treated vs untreated (FIG. 17 upper),significantly reducing
same,attraction of syrphids to baited traps,syrphids,attracted to some syrphids
same,number of Harmonia axyridis caught in baited traps,Harmonia axyridis,not significantly differed from the control
same,EAG responses of winged soybean aphids,[1],significantly stronger than the control
same,attraction of adults of Coccinella septempunctata to baited traps,[5],significantly attractive
CCC/C=C/C=O [(E)-2 hexenal],EAG responses of winged soybean aphids,[1],highest response
C=CC(C)(O)CCC=C(C)C (stereo not shown) [linalool],EAG responses of winged soybean aphids,[1],significantly stronger than the control
C=CC(C)=CCC=C(C)C [ocimene],EAG responses of winged soybean aphids,[1],significantly stronger than the control
CC/C=C\CCO [(Z)-3 Hexenol],EAG responses of winged soybean aphids,[1],significantly stronger than the control
O=Cc1ccccc1 [benzaldehyde],number of winged soybean aphids caught per trap,winged soybean aphids,caught the most
same,EAG responses of winged soybean aphids,[1],significantly stronger than the control
"CC1=CO[C@@H](O)[C@H]2[C@@H]1CC[C@@H]2C [nepetalactol, (1R,4aS,7S,7aR)-nepetalactol]",number of male and gynoparous soybean aphids caught in traps,[3],Significantly lower catches
CC/C=C\CCOC(C)=O [(Z)-3 hexenyl acetate],EAG responses of winged soybean aphids,[1],significantly stronger than the control
OCCc1ccccc1 [2-phenylethanol],attraction of syrphids to baited traps,syrphids,strongest attraction
same,EAG responses of winged soybean aphids,[1],significantly stronger than the control
